Among the data in patent US10722514B2 (FLX Bio, Inc., priority 2017, dated 2020) are IC50 values, retold here.

Counter-ions that a name gives are not always drawn.

The experiment addresses T1, recombinant full-length USP7 (Homo sapiens, UniProt Q93009).
T1 construct: A 25 μl reaction volume containing recombinant full-length USP7 (62 pM)
Put plainly: USP7-mediated ubiquitin-rhodamine cleavage assay. It counts as biochemical. The conditions noted are these: recombinant full-length USP7 62 pM; ubiquitin-rhodamine 100 nM; 30-minute incubation with compound, 1 hour reaction at room temperature; read-out: Potency: USP7 IC50. In short, it runs like this: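 Enzyme 62 pM; HEPES pH 7.3/150 mM NaCl/1 mM TCEP/125 μg/ml BSA; 1% DMSO; 30 min cpd preinc RT; Ub-rhodamine 100 nM, 1 h RT, dark; acetic acid stop; fluorescence; IC50 4-param fit.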

T1 sequence (Q93009 whole entry): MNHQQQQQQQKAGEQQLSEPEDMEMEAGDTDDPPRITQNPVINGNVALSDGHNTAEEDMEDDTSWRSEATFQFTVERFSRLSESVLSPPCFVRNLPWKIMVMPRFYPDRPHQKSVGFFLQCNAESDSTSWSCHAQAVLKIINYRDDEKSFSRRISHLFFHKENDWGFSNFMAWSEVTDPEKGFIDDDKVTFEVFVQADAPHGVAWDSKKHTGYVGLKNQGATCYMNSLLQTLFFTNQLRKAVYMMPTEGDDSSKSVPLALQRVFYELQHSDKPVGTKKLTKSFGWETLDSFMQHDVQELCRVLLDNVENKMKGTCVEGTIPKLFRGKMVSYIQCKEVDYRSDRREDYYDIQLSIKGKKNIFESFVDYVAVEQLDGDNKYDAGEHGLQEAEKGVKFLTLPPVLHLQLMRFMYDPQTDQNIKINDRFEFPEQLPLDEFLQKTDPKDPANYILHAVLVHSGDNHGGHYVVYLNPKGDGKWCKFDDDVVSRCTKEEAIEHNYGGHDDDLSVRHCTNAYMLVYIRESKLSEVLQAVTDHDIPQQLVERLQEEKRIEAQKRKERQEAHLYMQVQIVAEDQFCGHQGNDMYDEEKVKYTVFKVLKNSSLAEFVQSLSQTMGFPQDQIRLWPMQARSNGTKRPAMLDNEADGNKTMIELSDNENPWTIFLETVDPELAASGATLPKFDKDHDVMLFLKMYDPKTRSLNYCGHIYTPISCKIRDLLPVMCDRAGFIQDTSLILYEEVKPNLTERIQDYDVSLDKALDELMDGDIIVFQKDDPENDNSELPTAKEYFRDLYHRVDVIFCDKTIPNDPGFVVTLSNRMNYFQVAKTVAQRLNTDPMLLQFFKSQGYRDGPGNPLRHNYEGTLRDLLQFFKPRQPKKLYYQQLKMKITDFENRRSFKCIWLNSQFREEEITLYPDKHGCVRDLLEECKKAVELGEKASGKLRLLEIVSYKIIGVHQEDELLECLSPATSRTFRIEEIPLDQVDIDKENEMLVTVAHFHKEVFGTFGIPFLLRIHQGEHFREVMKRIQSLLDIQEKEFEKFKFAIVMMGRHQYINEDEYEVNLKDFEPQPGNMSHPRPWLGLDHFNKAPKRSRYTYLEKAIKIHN

What is called IC50 is the concentration at which inhibition is half-maximal. For the compound `Cc1cc(Cl)cc(-c2ncnc3cc(CN4C(=O)C5CC5C4=O)sc23)c1O[C@@H]1CCNC[C@H]1F` (stereo partly drawn) [Example 309, 3-[[4-[5-chloro-2-[[(3R,4R)-3-fluoro-4-piperidyl]oxy]-3-methyl-phenyl]thieno[3,2-d]pyrimidin-6-yl]methyl]-3-azabicyclo[3.1.0]hexane-2,4-dione dihydrochloride], the IC50 was less than 1000 nM.

On to `CCN1C[C@H](F)[C@H](Oc2c(C)cc(Cl)cc2-c2ccnc3cc(CN4C(=O)C5CC5C4=O)sc23)C1` (stereo partly drawn) [Example 310, 3-[[7-[5-chloro-2-[(3R,4S)-1-ethyl-4-fluoro-pyrrolidin-3-yl]oxy-3-methyl-phenyl]thieno[3,2-b]pyridin-2-yl]methyl]-3-azabicyclo[3.1.0]hexane-2,4-dione], for which the IC50 is less than 1000 nM.

On to `Cc1cc(Cl)cc(-c2ccnc3cc(CN4C(=O)OC(C)(C)C4=O)sc23)c1O[C@H]1CCCNC1` [Example 311, 3-[[7-[5-chloro-3-methyl-2-[[(3S)-3-piperidyl]oxy]phenyl]thieno[3,2-b]pyridin-2-yl]methyl]-5,5-dimethyl-oxazolidine-2,4-dione; 2,2,2-trifluoroacetic acid], for which the half-inhibitory concentration (IC50) was less than 1000 nM.

Regarding `Cc1cc(Cl)cc(-c2ccnc3cc(CN4C(=O)C5C(C4=O)C5(C)C)sc23)c1O[C@@H]1CNC[C@@H]1F` (stereo partly drawn) [Example 312, 3-[[7-[5-chloro-2-[(3R,4S)-4-fluoropyrrolidin-3-yl]oxy-3-methyl-phenyl]thieno[3,2-b]pyridin-2-yl]methyl]-6,6-dimethyl-3-azabicyclo[3.1.0]hexane-2,4-dione], the IC50 is less than 1000 nM.

On to `Cc1cc(Cl)cc(-c2ccnc3cc(CN4C(=O)CC(C)(C)C4=O)sc23)c1O[C@H]1CCCNC1` [Example 313, 1-[[7-[5-chloro-3-methyl-2-[[(3S)-3-piperidyl]oxy]phenyl]thieno[3,2-b]pyridin-2-yl]methyl]-3,3-dimethyl-pyrrolidine-2,5-dione; 2,2,2-trifluoroacetic acid], for which the IC50 was less than 1000 nM.

For the compound `Cc1cc(Cl)cc(-c2ccnc3cc(CN4C(=O)C5CC5C4=O)sc23)c1O[C@@H]1CN(C)C[C@@H]1F` (stereo partly drawn) [Example 314, 3-[[7-[5-chloro-2-[(3R,4S)-4-fluoro-1-methyl-pyrrolidin-3-yl]oxy-3-methyl-phenyl]thieno[3,2-b]pyridin-2-yl]methyl]-3-azabicyclo[3.1.0]hexane-2,4-dione], the IC50 is less than 1000 nM.

Consider `Cc1cc(Cl)cc(-c2ccnc3cc(CN4C(=O)C5CC5C4=O)sc23)c1O[C@@H]1C[C@H]2CN[C@@H]1C2` (stereo partly drawn) [Example 315, 3-[[7-[2-[[(1S,4R,5R)-3-azabicyclo[2.2.1]heptan-5-yl]oxy]-5-chloro-3-methyl-phenyl]thieno[3,2-b]pyridin-2-yl]methyl]-3-azabicyclo[3.1.0]hexane-2,4-dione], for which the IC50 is less than 1000 nM.

Turning to `Cc1cc(Cl)cc(-c2ccnc3cc(CN4C(=O)C5C(C4=O)C5(C)C)sc23)c1OC1CN2CCC1CC2` (stereo not shown) [Example 316, 3-[[7-(5-chloro-3-methyl-2-quinuclidin-3-yloxy-phenyl)thieno[3,2-b]pyridin-2-yl]methyl]-6,6-dimethyl-3-azabicyclo[3.1.0]hexane-2,4-dione; 2,2,2-trifluoroacetic acid], the IC50 was less than 1000 nM.

For `Cc1cc(Cl)cc(-c2ccnc3cc(CN4C(=O)CC5(CCC5)C4=O)sc23)c1O[C@H]1CCCNC1` [Example 317, 6-[[7-[5-chloro-3-methyl-2-[[(3S)-3-piperidyl]oxy]phenyl]thieno[3,2-b]pyridin-2-yl]methyl]-6-azaspiro[3.4]octane-5,7-dione; 2,2,2-trifluoroacetic acid], the IC50 was less than 1000 nM.

Regarding `Cc1cc(Cl)cc(-c2ccnc3cc(CN4C(=O)CCC4=O)sc23)c1OC1CN2CCC1CC2` (stereo not shown) [Example 318, 1-[[7-(5-chloro-3-methyl-2-quinuclidin-3-yloxy-phenyl)thieno[3,2-b]pyridin-2-yl]methyl]pyrrolidine-2,5-dione; 2,2,2-trifluoroacetic acid], the IC50 was less than 1000 nM.

On to `Cc1cc(Cl)cc(-c2ccnc3cc(CN4C(=O)C5CC5C4=O)sc23)c1OC1CN2CCC1CC2` (stereo not shown) [Example 319, 3-[[7-(5-chloro-3-methyl-2-quinuclidin-3-yloxy-phenyl)thieno[3,2-b]pyridin-2-yl]methyl]-3-azabicyclo[3.1.0]hexane-2,4-dione; 2,2,2-trifluoroacetic acid], for which the half-inhibitory concentration (IC50) is less than 1000 nM.

As to `CCN1C[C@H]2C[C@@H]1[C@H](Oc1c(C)cc(Cl)cc1-c1ccnc3cc(CN4C(=O)C5CC5C4=O)sc13)C2` (stereo partly drawn) [Example 320, 3-[[7-[5-chloro-2-[[(1S,4R,5R)-3-ethyl-3-azabicyclo[2.2.1]heptan-5-yl]oxy]-3-methyl-phenyl]thieno[3,2-b]pyridin-2-yl]methyl]-3-azabicyclo[3.1.0]hexane-2,4-dione], the half-inhibitory concentration (IC50) was less than 1000 nM.

As to `CCN1C[C@H]2C[C@@H]1[C@H](Oc1c(C)cc(Cl)cc1-c1ccnc3cc(CN4C(=O)CCC4=O)sc13)C2` [Example 321, 1-[[7-[5-chloro-2-[[(1S,4R,5R)-3-ethyl-3-azabicyclo[2.2.1]heptan-5-yl]oxy]-3-methyl-phenyl]thieno[3,2-b]pyridin-2-yl]methyl]pyrrolidine-2,5-dione], the half-maximal inhibitory concentration (IC50) was less than 1000 nM.

In the case of `Cc1cc(Cl)cc(-c2ccnc3cc(CN4C(=O)CCC4=O)sc23)c1O[C@@H]1CN(C2CCC2)C[C@@H]1F` [Example 322, 1-[[7-[5-chloro-2-[(3R,4S)-1-cyclobutyl-4-fluoro-pyrrolidin-3-yl]oxy-3-methyl-phenyl]thieno[3,2-b]pyridin-2-yl]methyl]pyrrolidine-2,5-dione], the IC50 was less than 1000 nM.

With `Cc1cc(Cl)cc(-c2ccnc3cc(CN4C(=O)CCC4=O)sc23)c1O[C@@H]1CN(C(C)C)C[C@@H]1F` [Example 323, 1-[[7-[5-chloro-2-[(3R,4S)-4-fluoro-1-isopropyl-pyrrolidin-3-yl]oxy-3-methyl-phenyl]thieno[3,2-b]pyridin-2-yl]methyl]pyrrolidine-2,5-dione], the IC50 is less than 1000 nM.

As to `Cc1cc(Cl)cc(-c2ccnc3cc(CN4C(=O)C5CC5C4=O)sc23)c1O[C@@H]1CCNC[C@@H]1C` (stereo partly drawn) [Example 324, 3-[[7-[5-chloro-3-methyl-2-[[(3S,4R)-3-methyl-4-piperidyl]oxy]phenyl]thieno[3,2-b]pyridin-2-yl]methyl]-3-azabicyclo[3.1.0]hexane-2,4-dione], the IC50 is less than 1000 nM.

As to `CCN1CC[C@@H](Oc2c(C)cc(Cl)cc2-c2ccnc3cc(CN4C(=O)C5CC5C4=O)sc23)[C@@H](C)C1` (stereo partly drawn) [Example 325, 3-[[7-[5-chloro-2-[[(3S,4R)-1-ethyl-3-methyl-4-piperidyl]oxy]-3-methyl-phenyl]thieno[3,2-b]pyridin-2-yl]methyl]-3-azabicyclo[3.1.0]hexane-2,4-dione], the half-maximal inhibitory concentration (IC50) was less than 1000 nM.

As to `Cc1cc(Cl)cc(-c2ccnc3cc(CN4C(=O)C5CC5C4=O)sc23)c1O[C@@H]1CCN(C)C[C@@H]1C` (stereo partly drawn) [Example 326, 3-[[7-[5-chloro-2-[[(3S,4R)-1,3-dimethyl-4-piperidyl]oxy]-3-methyl-phenyl]thieno[3,2-b]pyridin-2-yl]methyl]-3-azabicyclo[3.1.0]hexane-2,4-dione], the IC50 is less than 1000 nM.

For the compound `Cc1cc(Cl)cc(-c2ccnc3cc(CN4C(=O)C5CC5C4=O)sc23)c1O[C@@H]1CNC[C@@H]1C` (stereo partly drawn) [Example 327, 3-[[7-[5-chloro-3-methyl-2-[(3S,4S)-4-methylpyrrolidin-3-yl]oxy-phenyl]thieno[3,2-b]pyridin-2-yl]methyl]-3-azabicyclo[3.1.0]hexane-2,4-dione], the IC50 is less than 1000 nM.

For `Cc1cc(Cl)cc(-c2ccnc3cc(CN4C(=O)C5C(C4=O)C5(C)C)sc23)c1O[C@@H]1CNC[C@@H]1C` (stereo partly drawn) [Example 328, 3-[[7-[5-chloro-3-methyl-2-[(3S,4S)-4-methylpyrrolidin-3-yl]oxy-phenyl]thieno[3,2-b]pyridin-2-yl]methyl]-6,6-dimethyl-3-azabicyclo[3.1.0]hexane-2,4-dione], the IC50 is less than 1000 nM.

As for `Cc1cc(Cl)cc(-c2ccnc3cc(Cn4c(=O)ccn(C(C)C)c4=O)sc23)c1O[C@@H]1CNC[C@@H]1C` [Example 329, 3-[[7-[5-chloro-3-methyl-2-[(3S,4S)-4-methylpyrrolidin-3-yl]oxy-phenyl]thieno[3,2-b]pyridin-2-yl]methyl]-1-isopropyl-pyrimidine-2,4-dione], the IC50 is less than 1000 nM.

Take `Cc1cc(Cl)cc(-c2ccnc3cc(CN4C(=O)COC4=O)sc23)c1O[C@H]1CCCNC1` [Example 330, 3-[[7-[5-chloro-3-methyl-2-[[(3S)-3-piperidyl]oxy]phenyl]thieno[3,2-b]pyridin-2-yl]methyl]oxazolidine-2,4-dione; 2,2,2-trifluoroacetic acid]: the half-inhibitory concentration (IC50) was less than 1000 nM.

For the compound `Cc1cc(Cl)cc(-c2ccnc3cc(CN4C(=O)C5C(C4=O)C5(C)C)sc23)c1O[C@@H]1C[C@H]2CN[C@@H]1C2` (stereo partly drawn) [Example 331, 3-[[7-[2-[[(1S,4R,5R)-3-azabicyclo[2.2.1]heptan-5-yl]oxy]-5-chloro-3-methyl-phenyl]thieno[3,2-b]pyridin-2-yl]methyl]-6,6-dimethyl-3-azabicyclo[3.1.0]hexane-2,4-dione], the IC50 is less than 1000 nM.

For the compound `CCN1C[C@H]2C[C@@H]1[C@H](Oc1c(C)cc(Cl)cc1-c1ccnc3cc(CN4C(=O)C5C(C4=O)C5(C)C)sc13)C2` (stereo partly drawn) [Example 332, 3-[[7-[5-chloro-2-[[(1S,4R,5R)-3-ethyl-3-azabicyclo[2.2.1]heptan-5-yl]oxy]-3-methyl-phenyl]thieno[3,2-b]pyridin-2-yl]methyl]-6,6-dimethyl-3-azabicyclo[3.1.0]hexane-2,4-dione], the IC50 was less than 1000 nM.

Turning to `Cc1cc(Cl)cc(-c2ccnc3cc(CN4C(=O)C5C(C4=O)C5(C)C)sc23)c1O[C@@H]1C[C@@H]2C[C@H]1N(C)C2` (stereo partly drawn) [Example 333, 3-[[7-[5-chloro-3-methyl-2-[[(1S,4R,5R)-3-methyl-3-azabicyclo[2.2.1]heptan-5-yl]oxy]phenyl]thieno[3,2-b]pyridin-2-yl]methyl]-6,6-dimethyl-3-azabicyclo[3.1.0]hexane-2,4-dione], the IC50 is less than 1000 nM.
